# Reference: US12268674B2, “Mi-2β inhibitor as an immunotherapy agent” (BioVentures, LLC, priority 2021, dated 2025)
# How the values were obtained:
# SKIV2L = target: T1, SKIV2L (Homo sapiens, UniProt Q15477); assay: ATPase profile (ATP acyl phosphate probe); format: binding; conditions: SEQ ID NO: 191, ATP BS
# T1 construct: to get the native cell lysate; endogenous in cells; host or cells: A375 cell lysate
# HSPA9 = target: T2, HSPA9 (Homo sapiens, UniProt P38646); assay: ATPase profile (ATP acyl phosphate probe); format: binding; conditions: HSPA9, SEQ ID NO: 108, ATP BS
# T2 construct: to get the native cell lysate; endogenous in cells; host or cells: A375
# CCT8 = target: T3, CCT8 (Homo sapiens, UniProt P50990); assay: ATPase profile (ATP acyl phosphate probe); format: binding; conditions: CCT8, SEQ ID NO: 56, ATP BS
# T3 construct: to get the native cell lysate; host or cells: A375 cell lysate
# DYNC1H1 = target: T4, DYNC1H1 (Homo sapiens, UniProt Q14204); assay: ATPase profile (ATP acyl phosphate probe); format: binding
# T4 construct: endogenous in cells; host or cells: A375 cell lysate
# [1] = test system: Mi-2β target gene expression in B16F10 cells; assay: RT-qPCR of Mi-2β target genes in B16F10 cells treated with Z36-MP5; format: cell-based, mouse; conditions: 25 μM, 24 hours
# Description: Z36-MP5 was chosen for further validation and experimental therapeutics in vivo. […] To investigate its cellular inhibitory activity, B16-F10 cells were treated with Z36-MP5 at concentrations ranging from 5 to 100 μM, and the activation of Mi-2β target genes measured by RT-qPCR. Z36-MP5 at 25 μM induced Mi-2β target gene expression including Cxc9, Cxcl10 and Irf1 (FIG. 11c) in B16F10 cells. We also performed the co-culture assays of B16F10 cells with activated Pmel-1 T cells to identify whether Z36-MP5 stimulation can activate T cell mediated cytotoxicity. […] In addition, the pharmacokinetic properties of Z36-MP5 in Sprague-Dawley rats with administration of intraperitoneal injection dose of 1.0 mg/kg.
# The total RNA was extracted with QIAGEN RNeasy kit […] for cDNA synthesis with SuperScript II Reverse Transcriptase (Invitrogen). In total, 40 ng cDNA was used for quantitative real-time PCR amplification by TaqMan Gene Expression Master Mix (Thermo Fisher Scientific). The relative transcript levels were normalized with GAPDH expression. The data were calculated with the comparative CT method.
# SARS = SARS (Homo sapiens, UniProt P49591); format: binding; conditions: SEQ ID NO: 190, ATP BS
# GARS = target: T5, GARS (Homo sapiens, UniProt P41250); assay: ATPase profile (ATP acyl phosphate probe); format: binding; conditions: SEQ ID NO: 79, ATP BS
# T5 construct: endogenous in cells; host or cells: A375 cell lysate
# AK3 = target: T6, AK3 (Homo sapiens, UniProt Q9UIJ7); assay: ATPase profile (ATP acyl phosphate probe); format: binding; conditions: AK3, SEQ ID NO: 34, ATP BS
# T6 construct: to get the native cell lysate; host or cells: A375 cell lysate
# PRKAG2 = PRKAG2 (Homo sapiens, UniProt Q9UGJ0); assay: ATPase profile (ATP acyl phosphate probe); format: binding; conditions: PRKAG2, SEQ ID NO: 170, ATP BS
# UBA6 = target: T7, UBA6 (Homo sapiens, UniProt A0AVT1); assay: ATPase profile (ATP acyl phosphate probe); format: binding; conditions: UBA6, SEQ ID NO: 222, ATP BS
# T7 construct: to get the native cell lysate; endogenous in cells; host or cells: A375 cell lysate
# B16F10 melanoma graft = assay: Syngeneic melanoma graft mouse model
# Description: To test Z36-MP5 function in syngeneic mouse model, B16F10 cells (1.5×105) were mixed with BD matrigel (Matrix Growth Factor Reduced) (BD, 354230) in 100 μl PBS, and then mouse subcutaneous injection and tumor graft monitor were performed as described above. Except that vehicle [5% (w/v) Kolliphor HS 15 (Sigma)] in normal saline or formulated 30 mg/kg Z36-MP5 was administered with i.p. injection once a day starting at day 6, together with i.p. injection of control IgG antibodies (10 mg/kg) or anti-PD-1 (RMP1-14, BioXCell, 10 mg/kg) on day 6, 9, 12, 15 and 18. The mice were euthanized after indicated days or when the allowable endpoint size (1 cm^3) was reached.
# Tumors were minced with scissors, and then digested with the digestion buffer (RPMI 1640 medium, 5% FBS, 1% penicillin-streptomycin, 25 mM HEPES, and 300 U collagenase (Sigma C0130)) on a shaker at 37° C. for 2 hours. Single cells were prepared through a 70 m cell strainer. Erythrocytes were removed by incubation in red blood cell lysis buffer (R7757, Sigma) at room temperature for 5 min. The cells were prepared in PBS (with concentration of ˜2×10^7) for studies.
# The single-cell suspension were fixed with 2% paraformaldehyde solution (J19943K2, Thermo Scientific). And then the cells were stained with the follow antibodies: anti-mouse CD45 APC (104, BD pharmingen, 561875), anti-mouse CD3e PE (145-2C11, BD pharmingen, 553063), anti-mouse CD4 FITC (RM4-5, BD pharmingen, 553046), anti-mouse CD4 PE/Cy7 (GK1.5, BioLegend, 100421), anti-mouse CD8 FITC (53-6.7, BD pharmingen, 553031), anti-mouse CD8a APC/Cy7 (53-6.7, BioLegend 100713), anti-mouse IFN-γ PE (XMG1.2, eBioscience, 12731181), anti-mouse CD69 PE (H1.2F3, Biolegend, 104508), anti-mouse CD25 Alexa Fluor 488 (PC61.5, eBioscience, 53025182), anti-mouse CD107a-V450 (1D4B, BD, 560648), anti-human/mouse granzyme B FITC (GB 11, BioLegend, 515403). The regulatory T cells in TILs were stained with the Mouse Regulatory T Cell Staining kit #1 (88-8111, ThermoFisher Scienctific), with antibodies of anti-mouse CD4 FITC (RM4-5), anti-mouse CD25 APC (PC61.5) anti-mouse Foxp3 PE (FJK-16s). BD LSRII was used for data acquisition and FlowJo was used for data analysis.
# NUDT1 = target: T8, NUDT1 (Homo sapiens, UniProt P36639); assay: ATPase profile (ATP acyl phosphate probe); format: binding
# T8 construct: to get the native cell lysate; endogenous in cells; host or cells: A375
# NUDT7 = target: T9, NUDT7 (Homo sapiens, UniProt P0C024); assay: ATPase profile (ATP acyl phosphate probe); format: binding; conditions: NUDT7, SEQ ID NO: 147, ATP BS
# T9 construct: to get the native cell lysate; endogenous in cells; host or cells: A375
# [2] = test system: ACTA2, ACTB, ACTBL2, ACTC1, ACTG1; assay: ATPase profile (ATP acyl phosphate probe); format: binding; conditions: ACTBL2, ACTC1, ACTG1, SEQ ID NO: 24, ATP BS
# MCM4 = target: T10, MCM4 (Homo sapiens, UniProt P33991); assay: ATPase profile (ATP acyl phosphate probe); format: binding; conditions: MCM4, SEQ ID NO: 118, ATP BS; read-out: Inhibition (%) by 1 μM Z36-MP5
# T10 construct: to get the native cell lysate; endogenous in cells; host or cells: A375
# APRT = target: T11, APRT (Homo sapiens, UniProt P07741); assay: ATPase profile (ATP acyl phosphate probe); format: binding; conditions: SEQ ID NO: 40, ATP BS
# T11 construct: to get the native cell lysate; host or cells: A375 cell lysate
# POLR3A = POLR3A (Homo sapiens, UniProt O14802); assay: ATPase profile (ATP acyl phosphate probe); format: binding; conditions: SEQ ID NO: 164, ATP BS
# QARS = target: T12, QARS (Homo sapiens, UniProt P47897); assay: ATPase profile (ATP acyl phosphate probe); format: binding; conditions: SEQ ID NO: 180, ATP BS
# T12 construct: to get the native cell lysate; endogenous in cells; host or cells: A375 cell lysate
# TOR1B = target: T13, TOR1B (Homo sapiens, UniProt O14657); assay: ATPase profile (ATP acyl phosphate probe); format: binding; conditions: SEQ ID NO: 204, ATP BS
# T13 construct: to get the native cell lysate; endogenous in cells; host or cells: A375 cell lysate
# ACACA = target: T14, ACACA (Homo sapiens, UniProt Q13085); assay: ATPase profile (ATP acyl phosphate probe); format: binding; conditions: SEQ ID NO: 20, ATP BS
# T14 construct: to get the native cell lysate; host or cells: A375 cell lysate
# LIG1 = target: T15, LIG1 (Homo sapiens, UniProt P18858); assay: ATPase profile (ATP acyl phosphate probe); format: binding; conditions: LIG1, SEQ ID NO: 114, ATP BS
# T15 construct: to get the native cell lysate; endogenous in cells; host or cells: A375
# EPRS = target: T16, EPRS (Homo sapiens, UniProt P07814); assay: ATPase profile (ATP acyl phosphate probe); format: binding; conditions: SEQ ID NO: 77, ATP BS
# T16 construct: endogenous in cells; host or cells: A375 cell lysate
# NADK2 = target: T17, NADK2 (Homo sapiens, UniProt Q4G0N4); assay: ATPase profile (ATP acyl phosphate probe); format: binding; conditions: NADK2, SEQ ID NO: 129, ATP BS
# T17 construct: to get the native cell lysate; endogenous in cells; host or cells: A375
# PFKM = target: T18, PFKM (Homo sapiens, UniProt P08237); assay: ATPase profile (ATP acyl phosphate probe); format: binding; conditions: SEQ ID NO: 159, ATP BS
# T18 construct: to get the native cell lysate; endogenous in cells; host or cells: A375 cell lysate
# [3] = Z36-MP5 30 mg/kg combined with anti-PD-1 10 mg/kg, B16F10 graft
# T4 sequence (Q14204 whole entry): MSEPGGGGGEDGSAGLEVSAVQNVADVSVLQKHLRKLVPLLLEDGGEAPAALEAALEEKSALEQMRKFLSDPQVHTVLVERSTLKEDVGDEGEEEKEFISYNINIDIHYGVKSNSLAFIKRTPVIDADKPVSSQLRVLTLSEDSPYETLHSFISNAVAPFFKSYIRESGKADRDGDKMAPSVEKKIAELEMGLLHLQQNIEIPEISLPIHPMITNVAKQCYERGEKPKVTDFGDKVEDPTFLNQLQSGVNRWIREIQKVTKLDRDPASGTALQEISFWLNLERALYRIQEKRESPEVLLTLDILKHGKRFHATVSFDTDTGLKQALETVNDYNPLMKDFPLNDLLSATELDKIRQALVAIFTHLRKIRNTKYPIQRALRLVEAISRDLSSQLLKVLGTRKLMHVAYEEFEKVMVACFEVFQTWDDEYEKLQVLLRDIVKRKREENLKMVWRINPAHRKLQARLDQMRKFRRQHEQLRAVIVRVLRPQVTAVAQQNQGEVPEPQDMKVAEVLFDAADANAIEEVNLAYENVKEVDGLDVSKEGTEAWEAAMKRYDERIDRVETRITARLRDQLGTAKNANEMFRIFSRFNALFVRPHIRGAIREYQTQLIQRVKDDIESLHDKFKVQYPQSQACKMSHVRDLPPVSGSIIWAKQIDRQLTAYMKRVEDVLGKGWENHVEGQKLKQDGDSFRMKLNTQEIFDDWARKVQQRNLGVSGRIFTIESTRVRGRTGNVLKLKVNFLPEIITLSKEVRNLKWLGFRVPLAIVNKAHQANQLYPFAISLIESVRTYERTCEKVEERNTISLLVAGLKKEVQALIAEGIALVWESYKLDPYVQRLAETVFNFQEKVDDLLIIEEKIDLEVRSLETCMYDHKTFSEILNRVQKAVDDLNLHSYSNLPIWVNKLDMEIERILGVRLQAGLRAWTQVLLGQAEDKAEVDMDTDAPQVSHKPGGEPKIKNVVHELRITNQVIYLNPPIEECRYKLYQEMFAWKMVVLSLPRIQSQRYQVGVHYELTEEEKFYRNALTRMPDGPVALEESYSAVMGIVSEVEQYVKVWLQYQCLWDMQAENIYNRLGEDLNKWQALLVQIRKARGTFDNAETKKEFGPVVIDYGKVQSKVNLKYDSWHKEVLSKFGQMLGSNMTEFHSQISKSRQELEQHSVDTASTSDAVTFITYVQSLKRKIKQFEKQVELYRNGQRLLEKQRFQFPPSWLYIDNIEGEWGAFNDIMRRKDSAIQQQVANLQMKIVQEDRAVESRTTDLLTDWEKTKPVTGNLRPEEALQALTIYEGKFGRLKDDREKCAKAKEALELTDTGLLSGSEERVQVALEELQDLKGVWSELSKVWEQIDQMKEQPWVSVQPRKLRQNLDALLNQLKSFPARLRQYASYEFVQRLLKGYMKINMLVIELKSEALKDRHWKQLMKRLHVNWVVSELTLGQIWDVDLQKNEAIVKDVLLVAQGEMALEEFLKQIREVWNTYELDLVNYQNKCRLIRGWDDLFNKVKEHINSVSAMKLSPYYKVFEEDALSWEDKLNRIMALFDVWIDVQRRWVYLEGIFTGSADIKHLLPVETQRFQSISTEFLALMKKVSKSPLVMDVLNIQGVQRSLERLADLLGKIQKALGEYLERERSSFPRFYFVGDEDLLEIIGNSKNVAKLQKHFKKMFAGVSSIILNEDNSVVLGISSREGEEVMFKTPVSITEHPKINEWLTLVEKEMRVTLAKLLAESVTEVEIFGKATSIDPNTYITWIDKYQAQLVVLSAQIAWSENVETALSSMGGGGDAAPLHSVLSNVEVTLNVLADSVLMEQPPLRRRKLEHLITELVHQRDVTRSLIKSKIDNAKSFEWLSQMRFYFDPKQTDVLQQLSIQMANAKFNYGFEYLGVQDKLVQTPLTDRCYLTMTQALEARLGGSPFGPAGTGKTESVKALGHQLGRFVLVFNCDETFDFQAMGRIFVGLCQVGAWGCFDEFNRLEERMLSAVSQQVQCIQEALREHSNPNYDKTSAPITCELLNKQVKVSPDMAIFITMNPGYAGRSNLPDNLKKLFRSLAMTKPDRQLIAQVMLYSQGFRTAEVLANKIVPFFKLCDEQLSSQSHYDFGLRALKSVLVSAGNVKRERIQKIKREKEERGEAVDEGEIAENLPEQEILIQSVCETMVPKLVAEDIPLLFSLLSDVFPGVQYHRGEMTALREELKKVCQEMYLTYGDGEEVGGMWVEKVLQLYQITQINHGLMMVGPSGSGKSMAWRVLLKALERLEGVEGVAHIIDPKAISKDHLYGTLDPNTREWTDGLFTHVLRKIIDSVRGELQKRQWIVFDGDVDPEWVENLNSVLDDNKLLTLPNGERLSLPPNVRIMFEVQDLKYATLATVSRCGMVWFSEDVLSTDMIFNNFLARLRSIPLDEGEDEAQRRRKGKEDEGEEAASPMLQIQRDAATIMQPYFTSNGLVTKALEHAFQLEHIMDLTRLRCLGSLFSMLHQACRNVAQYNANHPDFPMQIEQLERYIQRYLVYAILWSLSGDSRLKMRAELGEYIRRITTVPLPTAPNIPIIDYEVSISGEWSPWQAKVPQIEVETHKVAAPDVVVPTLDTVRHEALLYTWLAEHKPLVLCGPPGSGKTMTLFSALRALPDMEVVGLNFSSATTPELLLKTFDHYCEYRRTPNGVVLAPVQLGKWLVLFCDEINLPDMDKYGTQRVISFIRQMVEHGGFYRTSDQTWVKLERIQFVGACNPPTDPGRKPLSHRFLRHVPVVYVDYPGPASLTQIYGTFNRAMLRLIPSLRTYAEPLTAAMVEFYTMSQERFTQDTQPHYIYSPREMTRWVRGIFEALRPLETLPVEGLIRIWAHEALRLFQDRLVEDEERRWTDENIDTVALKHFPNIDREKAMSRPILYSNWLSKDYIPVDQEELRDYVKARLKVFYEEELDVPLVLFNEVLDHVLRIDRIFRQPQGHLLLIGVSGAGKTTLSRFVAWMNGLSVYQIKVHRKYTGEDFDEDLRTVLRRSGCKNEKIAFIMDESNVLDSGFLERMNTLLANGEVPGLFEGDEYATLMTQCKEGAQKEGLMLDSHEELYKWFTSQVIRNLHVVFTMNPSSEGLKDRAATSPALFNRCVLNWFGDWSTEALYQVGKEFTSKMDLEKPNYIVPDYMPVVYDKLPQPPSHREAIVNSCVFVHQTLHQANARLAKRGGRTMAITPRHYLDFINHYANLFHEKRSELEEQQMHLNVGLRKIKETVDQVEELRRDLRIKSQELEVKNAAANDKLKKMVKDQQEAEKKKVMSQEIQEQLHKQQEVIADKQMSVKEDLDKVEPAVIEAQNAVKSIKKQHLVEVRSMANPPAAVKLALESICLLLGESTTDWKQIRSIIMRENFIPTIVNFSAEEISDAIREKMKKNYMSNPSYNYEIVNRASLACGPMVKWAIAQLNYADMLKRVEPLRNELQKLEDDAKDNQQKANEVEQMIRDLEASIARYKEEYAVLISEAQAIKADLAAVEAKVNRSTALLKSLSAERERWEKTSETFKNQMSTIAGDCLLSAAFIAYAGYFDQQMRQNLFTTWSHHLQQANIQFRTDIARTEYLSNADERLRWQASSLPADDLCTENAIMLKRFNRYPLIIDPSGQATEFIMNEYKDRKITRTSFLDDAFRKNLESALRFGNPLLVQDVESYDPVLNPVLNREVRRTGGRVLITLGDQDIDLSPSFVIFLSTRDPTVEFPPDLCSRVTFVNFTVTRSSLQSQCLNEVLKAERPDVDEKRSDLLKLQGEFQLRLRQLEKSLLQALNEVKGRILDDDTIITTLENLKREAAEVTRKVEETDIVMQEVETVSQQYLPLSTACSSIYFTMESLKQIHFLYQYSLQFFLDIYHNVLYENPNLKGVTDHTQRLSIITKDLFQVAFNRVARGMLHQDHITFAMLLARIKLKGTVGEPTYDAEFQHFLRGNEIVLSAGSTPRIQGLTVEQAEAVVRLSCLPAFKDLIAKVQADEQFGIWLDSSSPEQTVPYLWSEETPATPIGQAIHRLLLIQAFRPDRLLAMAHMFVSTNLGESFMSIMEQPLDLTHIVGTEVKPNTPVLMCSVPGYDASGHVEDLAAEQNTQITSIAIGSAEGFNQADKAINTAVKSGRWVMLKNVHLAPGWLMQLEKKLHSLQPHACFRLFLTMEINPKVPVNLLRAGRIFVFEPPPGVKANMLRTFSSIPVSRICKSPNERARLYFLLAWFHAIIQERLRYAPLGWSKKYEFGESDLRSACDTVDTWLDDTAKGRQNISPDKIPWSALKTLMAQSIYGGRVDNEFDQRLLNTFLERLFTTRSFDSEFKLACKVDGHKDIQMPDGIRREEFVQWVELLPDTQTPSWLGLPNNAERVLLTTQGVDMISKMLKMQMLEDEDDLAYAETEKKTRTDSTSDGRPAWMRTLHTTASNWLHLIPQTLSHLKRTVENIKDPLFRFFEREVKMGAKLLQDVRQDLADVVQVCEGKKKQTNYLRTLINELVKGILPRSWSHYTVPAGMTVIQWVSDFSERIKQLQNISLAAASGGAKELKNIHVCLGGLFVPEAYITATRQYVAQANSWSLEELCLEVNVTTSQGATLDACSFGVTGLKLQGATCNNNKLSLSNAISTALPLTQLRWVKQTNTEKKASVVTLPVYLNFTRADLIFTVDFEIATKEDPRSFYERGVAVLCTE
# T9 sequence (P0C024 whole entry): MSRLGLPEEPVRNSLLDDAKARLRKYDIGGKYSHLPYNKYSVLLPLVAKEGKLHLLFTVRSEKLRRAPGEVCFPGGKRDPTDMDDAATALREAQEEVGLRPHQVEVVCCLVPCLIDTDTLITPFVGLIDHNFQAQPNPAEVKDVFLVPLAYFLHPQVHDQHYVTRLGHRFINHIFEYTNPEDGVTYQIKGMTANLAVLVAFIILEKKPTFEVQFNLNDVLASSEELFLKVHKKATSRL
# T11 sequence (P07741 whole entry): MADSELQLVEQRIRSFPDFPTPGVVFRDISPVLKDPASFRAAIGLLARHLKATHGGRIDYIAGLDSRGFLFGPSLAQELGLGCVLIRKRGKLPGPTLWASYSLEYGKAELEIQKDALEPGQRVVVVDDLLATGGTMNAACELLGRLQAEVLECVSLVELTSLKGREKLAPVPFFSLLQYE
structure (smiles),measurement,setting,value
"Cn1c(=O)[nH]c2ccc(-c3cccc(C(=O)NC4CCn5ccnc5C4)c3)cc21 (stereo not shown) [Z36-MP5, 3-(3-methyl-2-oxo-2,3-dihydro-1H-benzo[d]imidazol-5-yl)-N-(5,6,7,8-tetrahydroimidazo[1,2-a]pyridin-7-yl)benzamide]",Inhibition (%) by 1 μM Z36-MP5,SKIV2L,−3.49%
same,Inhibition (%) by 1 μM Z36-MP5,HSPA9,−4.09%
same,Inhibition (%) by 1 μM Z36-MP5,CCT8,9.18%
same,Inhibition (%) by 1 μM Z36-MP5,"DYNC1H1; DYNC1H1, SEQ ID NO: 74, ATP BS",−1.99%
same,Inhibition (%) by 1 μM Z36-MP5,"DYNC1H1; DYNC1H1, SEQ ID NO: 75, ATP BS",0.38%
same,"Mi-2β target gene expression including Cxc9, Cxcl10 and Irf1",[1],induced
same,Inhibition (%) by 1 μM Z36-MP5,SARS,3.57%
same,Inhibition (%) by 1 μM Z36-MP5,GARS,16.66%
same,Inhibition (%) by 1 μM Z36-MP5,AK3,19.58%
same,Inhibition (%) by 1 μM Z36-MP5,PRKAG2,−22.54%
same,Inhibition (%) by 1 μM Z36-MP5,UBA6,3.60%
same,mouse survival,B16F10 melanoma graft; [3],extended mouse survival
same,tumor growth,B16F10 melanoma graft; [3],substantial inhibition
same,"GZMB expression and activation markers CD69, IFN-γ, CD25 and CD107 in tumor-infiltrating CD8+ T cells",B16F10 melanoma graft; Z36-MP5 alone,upregulation
same,CD8+ T cell TILs,"B16F10 melanoma graft; Z36-MP5 alone, graft melanomas",moderate increase
same,"GZMB expression and activation markers CD69, IFN-γ, CD25 and CD107 in tumor-infiltrating CD8+ T cells",B16F10 melanoma graft; Z36-MP5 combined with anti-PD-1,augmented
same,CD8+ T cell TILs,"B16F10 melanoma graft; Z36-MP5 combined with anti-PD-1, graft melanomas",augmented
same,population of CD4+ T cell and Treg cells,"B16F10 melanoma graft; individual or combinational treatments, graft melanomas",not changed significantly
same,tumor growth or mouse survival,"B16F10 melanoma graft; treatment alone, B16F10 graft",did not impact
same,Inhibition (%) by 1 μM Z36-MP5,"NUDT1; NUDT1, SEQ ID NO: 142, ATP BS",25.70%
same,Inhibition (%) by 1 μM Z36-MP5,"NUDT1; NUDT1, SEQ ID NO: 143, ATP BS",22.17%
same,Inhibition (%) by 1 μM Z36-MP5,"NUDT1; NUDT1, SEQ ID NO: 144, ATP BS",18.32%
same,Inhibition (%) by 1 μM Z36-MP5,NUDT7,19.75%
same,Inhibition (%) by 1 μM Z36-MP5,[2],−15.29%
same,inhibition at 1 µM,MCM4,4.98%
same,Inhibition (%) by 1 μM Z36-MP5,APRT,0.39%
same,Inhibition (%) by 1 μM Z36-MP5,POLR3A,4.31%
same,Inhibition (%) by 1 μM Z36-MP5,QARS,−7.77%
same,Inhibition (%) by 1 μM Z36-MP5,TOR1B,2.00%
same,Inhibition (%) by 1 μM Z36-MP5,ACACA,6.21%
same,Inhibition (%) by 1 μM Z36-MP5,LIG1,−7.76%
same,Inhibition (%) by 1 μM Z36-MP5,EPRS,0.78%
same,Inhibition (%) by 1 μM Z36-MP5,NADK2,−11.03%
same,Inhibition (%) by 1 μM Z36-MP5,PFKM,−8.93%
